Results: US12410166B2, “Sulfonylamidine substituted compounds and their use as beta-lactamase inhibitors” (NINGXIA ACADEMY OF AGRICULTURE AND FORESTRY SCIENCES, priority 2021, dated 2025)
Where a name gives a salt, the structure may show the parent alone. Read-outs that look alike come from different tables or passages of the source.

Columns and labels:
Experiment in all cases: MIC by broth microdilution (antibacterial and synergistic activity)
Format in all cases: cell-based
[1] = test system: K. pneumoniae 700603 (strain 4, KPC-3, TEM-1); conditions: Klebsiella pneumoniae, read-out: Antibacterial activity, MIC, inhibitor Alone
How it was run: (§1)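 Test agents were tested singly or as pairs, each inhibitor kept at 4 mg/L while meropenem or imipenem was serially diluted in cation-adjusted Mueller-Hinton broth. Bacteria were added at roughly 5×10^5 CFU/mL and incubated 18-24 hours at 37° C before visual MIC reading.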

[2] = test system: E. cloacae clinical isolate (strain 5, P99); conditions: Enterobacter cloacae, read-out: Antibacterial activity, MIC, inhibitor Alone
How it was run: as §1

[3] = test system: A. baumannii 19606 (strain 8, OXA-24); conditions: Acinetobacter baumannii, read-out: Antibacterial activity, MIC, inhibitor Alone
How it was run: as §1

[4] = test system: K. pneumoniae clinical isolate (strain 3, SHV-1); conditions: Klebsiella pneumoniae, read-out: Antibacterial activity, MIC, inhibitor Alone
How it was run: as §1

[5] = test system: P. aeruginosa clinical isolate (strain 9, KPC-2); conditions: Pseudomonas aeruginosa, read-out: Antibacterial activity, MIC, inhibitor Alone
How it was run: as §1

[6] = test system: E. coli clinical isolate (strain 1, TEM-1); conditions: Escherichia coli, read-out: Antibacterial activity, MIC, inhibitor Alone
How it was run: as §1

[7] = test system: P. aeruginosa 9027 (strain 10, AmpC); conditions: Pseudomonas aeruginosa, read-out: Antibacterial activity, MIC, inhibitor Alone
How it was run: as §1

[8] = test system: E. cloacae 700323 (strain 6, AmpC); conditions: Enterobacter cloacae, read-out: Antibacterial activity, MIC, inhibitor Alone
How it was run: as §1

[9] = test system: A. baumannii clinical isolate (strain 7, OXA-23, OXA-40); conditions: Acinetobacter baumannii, read-out: Antibacterial activity, MIC, inhibitor Alone
How it was run: as §1

[10] = test system: E. coli 8739 (strain 2, CTX-M15); conditions: Escherichia coli, read-out: Antibacterial activity, MIC, inhibitor Alone
How it was run: as §1

[11] = strain 4 (KPC-3, TEM-1), compound alone, no antibiotic
[12] = strain 5 (P99), compound alone, no antibiotic
[13] = strain 3 (SHV-1), compound alone, no antibiotic
[14] = strain 9 (KPC-2), compound alone, no antibiotic
[15] = strain 1 (TEM-1), compound alone, no antibiotic
[16] = strain 10 (AmpC), compound alone, no antibiotic
[17] = strain 6 (AmpC), compound alone, no antibiotic
[18] = strain 7 (OXA-23/40), compound alone, no antibiotic

Measured: MIC

COc1ccc(S(=O)(=O)NC(=N)[C@@H]2CC[C@@H]3CN2C(=O)N3OS(=O)(=O)O)cn1 [Ex. 21, (2S,5R)-2-(N-((6-methoxypyridin-3-yl)sulfonyl)carbamimidoyl)-7-oxo-1,6-diazabicyclo[3.2.1]octan-6-yl hydrogen sulfate]
> 64 µg/mL: [1]; [11] | [2]; [12] | [3] | [4]; [13] | [5]; [14] | [6]; [15] | [7]; [16] | [8]; [17] | [9]; [18] | [10]

N=C(NS(=O)(=O)N1CCC1)[C@@H]1CC[C@@H]2CN1C(=O)N2OS(=O)(=O)O [Ex. 15, (2S,5R)-2-(N-(azetidin-1-ylsulfonyl)carbamimidoyl)-7-oxo-1,6-diazabicyclo[3.2.1]octan-6-yl hydrogen sulfate]
> 64 µg/mL: [1] | [2] | [3] | [4] | [5] | [6] | [7] | [8] | [9] | [10]

N=C(NS(N)(=O)=O)[C@@H]1CC[C@@H]2CN1C(=O)N2OS(=O)(=O)O [Ex. 16, (2S,5R)-7-oxo-2-(N-Sulfamoylcarbamimidoyl)-1,6-diazabicyclo[3.2.1]octan-6-yl hydrogen sulfate]
> 64 µg/mL: [1]; [11] | [2]; [12] | [3] | [4]; [13] | [5]; [14] | [6]; [15] | [7]; [16] | [8]; [17] | [9]; [18] | [10]

CNS(=O)(=O)NC(=N)[C@@H]1CC[C@@H]2CN1C(=O)N2OS(=O)(=O)O [Ex. 17, (2S,5R)-2-(N—(N-Methylsulfamoyl)carbamimidoyl)-7-oxo-1,6-diazabicyclo[3.2.1]octan-6-yl hydrogen sulfate]
> 64 µg/mL: [1] | [2] | [3] | [4] | [5] | [6] | [7] | [8] | [9] | [10]

CS(=O)(=O)NC(=N)[C@@H]1CC[C@@H]2CN1C(=O)N2OS(=O)(=O)[O-].[Na+] [Ex. 5, Sodium (2S,5R)-2-(N-(methylsulfonyl)carbamimidoyl)-7-oxo-1,6-diazabicyclo[3.2.1]octan-6-yl sulfate]
> 64 µg/mL: [1]; [11] | [2]; [12] | [3] | [4]; [13] | [5]; [14] | [6]; [15] | [7]; [16] | [8]; [17] | [9]; [18] | [10]

N=C(NS(=O)(=O)c1ccc(F)cn1)[C@@H]1CC[C@@H]2CN1C(=O)N2OS(=O)(=O)O [Ex. 23, (2S,5R)-2-(N-((5-fluoropyridin-2-yl)sulfonyl)carbamimidoyl)-7-oxo-1,6-diazabicyclo[3.2.1]octan-6-yl hydrogen sulfate]
> 64 µg/mL: [1]; [11] | [2]; [12] | [3] | [4]; [13] | [5]; [14] | [6]; [15] | [7]; [16] | [8]; [17] | [9]; [18] | [10]

Cc1ccc(S(=O)(=O)NC(=N)[C@@H]2CC[C@@H]3CN2C(=O)N3OS(=O)(=O)[O-])cc1.[Na+] [Ex. 9, Sodium (2S,5R)-7-oxo-2-(N-tosylcarbamimidoyl)-1,6-diazabicyclo[3.2.1]octan-6-yl sulfate]
> 64 µg/mL: [1]; [11] | [2]; [12] | [3] | [4]; [13] | [5]; [14] | [6]; [15] | [7]; [16] | [8]; [17] | [9]; [18] | [10]

COC(=O)CCS(=O)(=O)NC(=N)[C@@H]1CC[C@@H]2CN1C(=O)N2OS(=O)(=O)[O-].[Na+] [Ex. 4, Sodium (2S,5R)-2-(N-((3-methoxy-3-oxopropyl)sulfonyl)carbamimidoyl)-7-oxo-1,6-diazabicyclo[3.2.1]octan-6-ylsulfate]
> 64 µg/mL: [1] | [2] | [3] | [4] | [5] | [6] | [7] | [8] | [9] | [10]
